Laboratory results published in patent publication US20220411879A1, “COMPOSITIONS AND METHODS FOR REGULATING EGFR AMPLIFICATION IN CANCER CELLS FOR IMPROVING EFFICACY OF EGFR-TARGETED ANTI-CANCER AGENTS” (Institute for Cancer Research d/b/a The Research Institute …, priority 2019, published 2022).

Legend:
Type in all cases: cell-based, human
[1] = test system: RPE cells; assay: Trypan blue exclusion assay of EGFR inhibitor sensitivity in RPE cells; details: KDM5i (1 μM) and Gefitinib (2.5 μM), 72 hours
Procedure: Control or stable KDM4A overexpression RPE cells were plated in 24 well tissue culture plates at a density of 5×10^3. […] Cells were stained with trypan blue solution (Sigma Aldrich) to assess cell viability and counted using a haemocytometer. Each condition was plated in triplicate wells and each well was counted in duplicate. An average was taken of all triplicates and used as a representative total.
Control or stable KDM4A overexpression RPE cells were plated in 24 well tissue culture plates at a density of 8×10^3. […] Cells were stained with trypan blue solution (Sigma Aldrich) to assess cell viability and counted using a hemocytometer. Each condition was plated in triplicate wells and each well was counted in duplicate. An average was taken of all triplicates and used as a representative total.
Parental RPE cells are plated in 24 well tissue culture plates, in triplicate at a density of 5×10^3. […] Cells are cultured for a total of 72 hours under drug treatment conditions before being harvested, stained with trypan blue and counted using a haemocytometer.

[2] = test system: RPE cells; assay: DNA FISH for EGFR DNA copy number in RPE cells
Procedure: The FISH protocol was performed as described previously in Black et al. (2013). Briefly, cell suspensions were fixed in ice-cold methanol:glacial acetic acid (3:1) solution for a minimum of four hours, before being spun onto 8 Chamber Polystyrene vessel tissue culture treated glass slides (Falcon, Fisher Scientific), using a centrifuge at 900 rpm. The slides were air-dried and incubated in 2×SSC buffer for 2 min, followed by serial ethanol dilution (70%, 85% and 100%) incubations for 2 min each, for a total of 6 min. Air-dried slides were hybridized with probes that were diluted in appropriate buffer overnight at 37° C., following a 4 minute incubation on a heat block at 78° C. The slides were washed the next day for 3 to 4 mins in appropriate wash buffers at 69° C. with 0.4×SSC for Cytocell probes or commercially available Agilent wash buffer 1 followed by washing in 2×SSC with 0.05% Tween-20 (Cytocell probes) or commercially available Agilent wash buffer 2 (Agilent probes). The slides were incubated in 1 mg/mL DAPI solution made in 1% BSA-PBS, followed by a final 1×PBS wash. After the wash, the slides were mounted with ProLong Gold antifade reagent (Invitrogen).
FISH images were acquired using an Olympus IX81 or Olympus IX83 spinning disk microscope at 40× magnification and analyzed using Slidebook 6.0 softwares. A minimum of 25 z-planes with 0.5 um step size was acquired for each field. Copy number gains for EGFR, 7 centromere (7C), 7p telomere (7p22.3), IKZF1 (7p12.2) and 8 centromere (8C) were scored in RPE cells as three or more foci. A minimum of 100 nuclei are scored for each independent experiment.
For hypoxia, EGF and KDM5i combinatorial experiments, RPE cells were pre-treated with 1 nM of KDM4 inhibitor exactly 24 hours prior to hypoxic exposure or EGF treatment. Immediately before transferring cells to hypoxia, or before drug or growth factor treatment, KDM4 inhibitor was supplemented to cells again at a concentration of 1 nM (double spike). Cells were then cultured in the respective conditions for 24 hours prior to harvesting for RNA, protein, cell cycle and DNA FISH analysis.
RPE cells were treated with KDM5 inhibitor (C70) at a final concentration of 1 μM for a total treatment time of 48 hours. […]

[3] = test system: RPE cells; assay: Cell proliferation assay with EGF stimulation in RPE cells
Procedure: Control, KDM4A overexpression or wild type parental RPE cells were plated at a density of 5×10^3 per well in a 6 well tissue culture plate. Each condition was plated in triplicate for each independent experiment. Cells were allowed to adhere for 16 hours before fresh complete media was added containing a final concentration of 50 ng/ml human recombinant EGF (Abcam). For control and KDM4A overexpression RPE cells, cells were harvested after 48 hours of EGF treatment and cell number calculated using a haemocytometer. For combinatorial drug experiments using parental RPE cells, EGF was added for 24 hours, following a 24 hour drug treatment with either KDM5i (1 μM) or EZH2i (3 μM).
Parental RPE cells were plated in 24 well tissue culture plates, in triplicate at a density of 5×10^3. Cells were allowed to adhere for approximately 16 hours before media was supplemented with EZH2 inhibitor (C24) at a final concentration of 3 μM. After an initial 24 hour treatment, human recombinant EGF was supplemented to each well at a final concentration of 50 ng/ml. After 48 hours of EGF treatment, cells were harvested and counted using a haemocytometer.

[4] = test system: KDM4A; assay: Immunoblot of KDM4A protein levels in RPE cells; details: EGF 50 ng/ml, 24 hours
Procedure: Cells were trypsinized and washed two times with PBS before resuspending in RIPA lysis buffer [50 mM Tris pH 7.4, 150 mM NaCl, 0.25% Sodium Deoxycholate, 1% NP40, 1 mM EDTA, 10% Glycerol] freshly supplemented with protease inhibitor and PhosSTOP phosphatase inhibitor cocktails (Roche). Cells were lysed on ice for 15 min and stored at −80° C. until further processing. Lysates were sonicated for 15 min (30 sec ON and 30 sec OFF cycle) at 70% amplitude in QSonica Q700 sonicator (Qsonica) followed by centrifugation at 12,000 rpm for 15 min. Cell lysate was transferred to a fresh tube and protein estimations were performed with Pierce BCA reagent (Thermo Scientific). Equal amounts of proteins were separated by SDS gel electrophoresis and transferred on nitrocellulose membrane (BioTrace NT, Pall Life Sciences) for at least 3 hr at a constant current. The membranes were blocked for at least 1 hr in 5% BSA-PBST (1×PBS with 0.5% Tween-20) or 5% milk-PBST and probed over night with specific antibodies as follows at the following dilutions: anti-GFP (Neuro mAb) (1:100); anti-β-Actin (1:10,000); anti-KDM4A (Neuro mAb) (1:100); anti-Flag (Sigma Aldrich) (1:500); anti-KDMSA (abcam) (1:500); anti-HALO (Promega) (1:1000); anti-Carbonic Anhydrase IX (Abcam) (1:1000). […]

[5] = test system: RPE cells; assay: Scratch assay (cell migration) in RPE cells; details: KDM4A overexpressing RPE cells vs control, 50 ng/ml EGF, 24 hours
Procedure: Control or stable KDM4A overexpression RPE cells were plated in 6 well tissue culture plates at a density of 2×10^5. Cells were allowed to adhere to plates for 24 hours. After 24 hours in culture, a p200 pipette tip was used to introduce a scratch wound in the centre of the well from the 12 o'clock to 6 o'clock position. Following the induction of the scratch wound, media was removed from each well and 1 ml of DMEM was used to rinse the wells, removing any cellular debris. After this wash, 3 ml of DMEM supplemented with vehicle or human recombinant EGF (Abcam) to a final concentration of 50 ng/ml, was added to each well. Cells were imaged at 0 hrs, 12 hrs and 24 hrs, using the EVOS imaging platform at 4× magnification. Scratch wound measurements were performed using the EVOS software with a minimum of 5 measurements taken at various locations, per scratch wound. All measurements were averaged. Each condition was performed in triplicate for each independent experiment.

[6] = test system: EGFR transcripts; assay: qPCR of EGFR transcripts in RPE cells; details: 50 ng/ml EGF, 24 hours
Procedure: Cells were washed and collected by trypsinization, followed by washing in PBS two times. Cell pellet was resuspended in Qiazol reagent (QIAGEN) and stored at −80° C. before further processing. Total RNA was extracted using miRNAeasy Mini Kit (QIAGEN) with an on-column DNase digestion according to the manufacturer's instructions. RNA was quantified using NanoDrop 2000 (Thermo Scientific). Single strand cDNA was prepared using Super Script IV first strand synthesis kit (Invitrogen) using random hexamers. Expression levels were analyzed using FastStart Universal SYBR Green Master (ROX) (Roche) according to the manufacturer's instructions on a LightCycler 480 PCR machine (Roche). Samples were normalized to β-actin.

Compound | percentage of cells (trypan blue exclusion) on co-treatment with Gefitinib [1] | EGFR copy gains after drug removal (washout) ([2]; RPE cells, KDM5i 1 μM, 24 hrs after removal) | EGFR copy gains ([2]; RPE cells, KDM5i (C70) 1 μM) | cell proliferation in response to EGF ([3]; RPE cells pre-treated with KDM5i (1 μM) 24 hours, then 50 ng/ml EGF 24 hours, compared to KDM5i alone) | KDM4A protein levels [4] | cell migration (scratch assay) [5] | EGFR transcripts (qPCR) [6] | EGFR DNA copy number, EGF in KDM4A overexpressing cells ([2]; RPE cells stably overexpressing KDM4A, 50 ng/ml EGF, 24 hours) | EGFR copy number gains ([2]; RPE cells, 50 ng/ml EGF, 24 hours) | EGFR DNA copy number, EGF combined with hypoxia ([2]; RPE cells, hypoxia 24 hours then 50 ng/ml EGF under hypoxia 24 hours) | cell proliferation ([3]; KDM4A overexpressing RPE cells vs control, 50 ng/ml EGF, 48 hours)
CCOC(=O)c1ccnc(CNCC(=O)N(CC)CCN(C)C)c1 [KDM5i, reference compound] | reduced the percentage of cells relative to controls and single agent treatment | returned to baseline | promoted EGFR copy gains | increased cell proliferation with supplemented EGF | – | – | – | – | – | – | –
EGF: human recombinant EGF (Abcam), the preferred ligand of EGFR | – | – | – | – | does not impact KDM4A levels | migrate faster | increased EGFR transcripts | additive increases in EGFR DNA copy number | significant copy number gains of the EGFR locus | modest but additive increase in EGFR DNA copy number | proliferate faster
